Measured values from patent US20250381198A1 (Melt Pharmaceuticals, Inc., priority 2024, published 2025).

What was measured:
[1] = Phase 1 crossover relative bioavailability study: plasma pharmacokinetics of midazolam, 1-hydroxymidazolam, ketamine and norketamine
Description: PK analysis was performed using noncompartmental methods in Phoenix WinNonlin® (Version 8.1, Certara, L.P.) in conjunction with the internet-accessible implementation of the Pharsight® Knowledgebase Server™ (PKSO; Version 4.0.4, Certara, L.P). PKSO provides protected and structured storage, audit trails, and version control for study data, analyses, and related files, supporting 21 CFR Part 11 compliance. The analysis was performed in accordance with the Statistical Analysis Plan (Version 1.0, 5 Jan. 2021).
During the PK analysis, concentrations below the limit of quantitation (BLQ) up to the time of the first quantifiable concentration were treated as zero. Embedded (values between 2 quantifiable concentrations) and terminal BLQ concentrations were treated as “missing”. Calculation of the PK characteristics were based on actual elapsed times [h] (relative to time of dose).
All PK analyses were performed on the data from the PK Analysis Population. […] The ANOVA model included factors for sequence, subject within sequence, treatment, and period.

[2] = tested on: healthy adult subjects; test: Phase 1 pharmacodynamics: sedation by Ramsay sedation scale (RSS); type: in vivo, human; conditions: for Subjects with RSS score of 2: 5 minutes after administration
Description: Pharmacodynamic parameters included sedation, defined as time to onset of sedation and sedation level, assessed using the Ramsay sedation scale (RSS), and cardiodynamics assessed by QTcF, heart rate, and PR and QRS intervals, and T-wave morphology and U-wave presence, extracted from ECGs collected via Holter monitor from predose through 24 hours postdose.
All pharmacodynamic analyses were performed on data from the Safety Population. The RSS scores were summarized by treatment and by timepoint. Time to onset of sedation was summarized by treatment and presented graphically.

[3] = tested on: healthy adult subjects; test: Phase 1 safety: adverse events, vital signs, laboratory values, ECG, oral cavity examination, neurocognitive assessment (SPMSQ); type: in vivo, human; conditions: for Mean changes from baseline in systolic and diastolic blood pressures: MELT-100 3/25 mg and 6/25 mg, each timepoint
Description: The Investigator evaluated safety using physical and oral examinations, O2 saturation (SpO2), vital sign measurements, clinical laboratory evaluations, electrocardiograms (ECGs), reported or observed adverse events (AEs), and assessments of neurocognitive function. Subjects were monitored for any AEs from the first dose through the end of the study.
All safety analyses were performed on data from the Safety Population. All quantitative safety data were tabulated with descriptive summary statistics, including the following: arithmetic mean, SD, median, minimum value, maximum values, and number of non-missing observations (n).
Frequency counts and percentage were provided for categorical data. Data were summarized by treatment sequence, treatment, and/or overall, as applicable. All observed baseline/predose and postdose values were summarized by treatment when data were available. Additionally, the corresponding change from baseline/predose assessment to each postdose assessment were also summarized by treatment. All tabulations involving change from baseline/predose comparisons included only those subjects with data at both the baseline/predose and postdose assessments.
Adverse events were coded using the Medical Dictionary for Regulatory Activities (MedDRA, version 22.0, or later) terms and summarized by system organ class (SOC) and preferred term (PT) within SOC. The number and percentage of subjects reporting TEAEs were summarized by reported SOC and PT for each treatment and the population overall. TEAEs were also summarized by maximum severity and nearest relationship to study drug, by SOC and PT for each treatment.
A by-subject AE (including treatment-emergent) data listing, including but not limited to verbatim term, SOC, PT, severity, and relationship to study treatment, was provided. Deaths, SAEs, and other significant AEs, including those leading to early termination of study treatments were listed.
Vital signs, clinical laboratory values (hematology, serum chemistry, and urinalysis), and 12-lead ECG parameters were summarized by treatment including any abnormal values flagged.
Physical examination and oral cavity examination data at each evaluation were listed. […] Weight and height were summarized. Neurocognitive assessments for each evaluation were listed.

[4] = tested on: subjects undergoing cataract extraction with lens replacement (CELR); test: Phase 2 MELT-300: subjects achieving procedural sedation (RSS level 2 or 3 without rescue); type: in vivo, human; conditions: for Subjects who achieved target sedation: Full analysis set, MELT-300, 3 mg midazolam alone, 50 mg ketamine alone, sublingual; for Subjects achieving procedural sedation: No / Subjects achieving procedural sedation: Yes: Visit 2 (Day 1), Full Analysis Set, single sublingual tablet (MELT-300; midazolam 3 mg; ketamine 50 mg)
Description: Achievement of procedural sedation was evaluated for each subject (see TABLE 20). Success for procedural sedation for this Phase 2 study was defined as achieving target sedation level (Ramsay Sedation Scale (RSS) scale level 2 or 3) at the start of surgery without the need for rescue sedation medication, and no need for intraoperative rescue sedation medication to maintain target sedation level.

[5] = tested on: subjects undergoing cataract extraction with lens replacement (CELR); test: Phase 2: subject-rated worst pain during surgery by the numeric pain rating scale; type: in vivo, human; conditions: Full Analysis Set; for Worst Pain During Surgery (NPRS), Mean / Worst Pain During Surgery (NPRS), Median: carry forward, MELT-300, midazolam 3 mg, ketamine 50 mg
[6] = tested on: subjects undergoing cataract extraction with lens replacement (CELR); test: Phase 2: subjects completing the surgery (and without interruption); type: in vivo, human; conditions: Visit 2 (Day 1); Full Analysis Set
Description: The number of subjects achieving analgesia response (observed) in the full analysis set was determined. Success in analgesia response was defined as NPRS<4 at the available at the available four intraoperative timepoints and a failure otherwise (e.g., any interoperative pain rescue was assumed to be a failure. Results are provided in TABLE 25. The number of subjects completing the surgery is provided in TABLE 26, and the number of subjects completing the surgery without interruption is provided in TABLE 27. For this measure, subjects completing the surgery without interruption (other than rescue medication) due to pain or anxiety were considered successes. The number of subjects requiring rescue sedative medication and those requiring analgesic medication are provided in TABLES 28 and 29, respectively. For all TABLES 25-29, p-Values between pairs of treatments were calculated and are provided.

[7] = tested on: subjects undergoing cataract extraction with lens replacement (CELR); test: Phase 2: subjects receiving opioid concomitant medication postoperatively; type: in vivo, human; conditions: Full Analysis Set; percent of subjects
[8] = Treatment D: ketamine IV 18 mg, fasted
[9] = 5-minute postdose timepoint, ketamine 18 mg IV
[10] = midazolam 3.5 mg IV, ketamine 18 mg IV
[11] = Treatment C: midazolam IV 3.5 mg, fasted

## CNC1(c2ccccc2Cl)CCCCC1=O (stereo not shown) [Ketamine, 2-(2-chlorophenyl)-2-(methylamino)cyclohexanone]
[1]; [8]
  Ketamine AUCExtrap, mean: 9.64%
  Ketamine Clast, mean: 1.99 ng/mL
  Ketamine Tlast, mean: 23.7 h
  Ketamine Vz, mean: 867 L
[1]; human, plasma, iv, 18 mg
  clearance: 998 mL/min
[2]; [9]
  Subjects with RSS score of 1: 4.0%
  Subjects with RSS score of 5: 4.0%
[2]; [10]
  Subjects with RSS score of 2: 92.0%
  Highest proportion of subjects with RSS scores >2 postdose: ~8%
[3]; [10]
  Mean changes from baseline in systolic and diastolic blood pressures: highest at the 10-minute timepoint
[3]; ketamine 18 mg IV
  Treatment-related AEs of hypertension, number: 3
[4]
  Subjects who achieved target sedation: 63.3%
  Subjects achieving procedural sedation: No: 29 (36.7) n (%)
  Subjects achieving procedural sedation: Yes: 50 (63.3) n (%)
[5]
  Worst pain: Mean Difference versus Placebo: −0.33
  Worst Pain During Surgery (NPRS), Mean: 3.7
  Worst Pain During Surgery (NPRS), Median: 4.0
[6]
  Subjects completing the surgery: No: 0 (0) n (%)
  Subjects completing the surgery: Yes: 79 (100.0) n (%)
[7]
  Received Postoperative Opioid on Day 2-8: No, %: (100.0) %
  Received Postoperative Opioid on Day 2-8: Yes, %: (0.0) %
  Received Postoperative Opioid on Day 2: No, %: (100.0) %
  Received Postoperative Opioid on Day 2: Yes, %: (0.0) %

## Cc1ncc2n1-c1ccc(Cl)cc1C(c1ccccc1F)=NC2 [Midazolam, 8-chloro-6-(2-fluorophenyl)-1-methyl-4H-imidazo[1,5-a][1,4]benzodiazepine]
[1]; [11]
  Midazolam AUCExtrap, mean: 5.58%
  Midazolam Clast, mean: 0.963 ng/mL
[2]; 5-minute postdose timepoint, midazolam 3.5 mg IV
  Subjects with RSS scores of 3: 8.3%
[2]; [10]
  Subjects with RSS score of 2: 91.7%
  Highest proportion of subjects with RSS scores >2 postdose: ~54%
[3]; 24 hours after midazolam 3.5 mg IV in Period 4, not considered clinically significant
  PR duration (one subject): abnormal
[3]; [10]
  Mean changes from baseline in systolic and diastolic blood pressures: minimal and similar
[3]; midazolam 3.5 mg IV
  Subjects with treatment-related AEs: 8.3%
  Treatment-related AEs, number of events: 2 events
[3]; midazolam 3.5 mg IV at 10-minute postdose, MELT-100 6/50 mg at 30-minute postdose
  Mean change from baseline in pulse oximetry: small mean decrease from baseline
[4]
  Subjects who achieved target sedation: 64.2%
  Subjects achieving procedural sedation: No: 29 (35.8) n (%)
  Subjects achieving procedural sedation: Yes: 52 (64.2) n (%)
[5]
  Worst pain: Mean Difference versus Placebo: 0.05
  Worst Pain During Surgery (NPRS), Mean: 4.0
  Worst Pain During Surgery (NPRS), Median: 4.0
[5]; versus ketamine 50 mg
  Worst pain: Mean Difference versus Ketamine: 0.38
[6]
  Subjects completing the surgery: No: 0 (0) n (%)
  Subjects completing the surgery: Yes: 81 (100.0) n (%)
[7]
  Received Postoperative Opioid on Day 2-8: No, %: (100.0) %
  Received Postoperative Opioid on Day 2-8: Yes, %: (0.0) %
  Received Postoperative Opioid on Day 2: No, %: (100.0) %
  Received Postoperative Opioid on Day 2: Yes, %: (0.0) %
